Settings: pH 7.4

Structure (SMILES)	logD
COCc1ccoc1C(=O)N(c1ccc(OC)cc1OC)C(C(=O)NC[C@@H](C)O)c1ccccc1F (stereo partly drawn)	1.98
CC(=O)N1CCN(CCOc2ccc(C3(O)CCN(c4ccc5nnc(C(F)(F)F)n5n4)CC3)cc2)CC1	2.2
O=C(Nc1cccc2cccnc12)C1CCC(N2C(=O)[C@@H]3[C@@H]4CC[C@@H](C4)[C@@H]3C2=O)CC1 (stereo partly drawn)	3.94
N#CC1(NC(=O)[C@@H]2CCCC[C@H]2C(=O)N2CCc3[nH]c4ccccc4c3C2)CC1	2.66
Cc1cnccc1COc1cnc(N2CCN(C(=O)OC(C)(C)C)CC2)nc1	3.8
CC(C)(C)OC(=O)N1CCC(c2ncc(OCc3ccc(S(C)(=O)=O)cc3)cn2)CC1	2.8
Cc1nnc(C)c2cc(N3CCN(C(=O)[C@@H]4CCCC[C@H]4C(=O)NC4(C#N)CC4)[C@H](C)C3)ccc12	1.93
Cc1cccc2c3c([nH]c12)CCN(C(=O)[C@@H]1CCCC[C@H]1C(=O)NC1(C#N)CC1)C3	2.99
CC(C)c1ccc2[nH]c3c(c2c1)CN(C(=O)[C@@H]1CCCC[C@H]1C(=O)NC1(C#N)CC1)CC3	4.1
C[C@@H](Oc1ccc(S(C)(=O)=O)cc1C(=O)N1CCN(c2ncc(C(F)(F)F)cc2F)CC1)C(F)(F)F	3.49
C[C@@H]1CN(c2nc(C(F)(F)F)no2)CCN1c1ncc(OCc2ccncc2C#N)cn1	3.1
N#CC1(NC(=O)[C@@H]2CCCC[C@H]2C(=O)N2CCc3[nH]c4c(C(F)(F)F)cccc4c3C2)CC1	3.75
CCS(=O)(=O)c1ccc(-c2cc(C(F)(F)F)ccc2OCC(N)=O)c(C)c1	2.77
C[C@@H]1CN(c2ncc(F)cn2)CCN1c1ncc(OCc2ccncc2C#N)cn1	3.4
COc1ccc(N2CCN(C(=O)[C@@H]3CCCC[C@H]3C(=O)NC3(C#N)CC3)[C@H](C)C2)nc1OC	2.3
COc1ccc(N2CCN(C(=O)[C@@H]3CCCC[C@H]3C(=O)NC3(C#N)CC3)[C@H](C)C2)cc1OC	1.85
CS(=O)(=O)c1ccc2c3c([nH]c2c1)CCN(C(=O)[C@@H]1CCCC[C@H]1C(=O)NC1(C#N)CC1)C3	1.5
N#CC1(NC(=O)[C@@H]2CCCC[C@H]2C(=O)N2CCc3[nH]c4ccc(F)cc4c3C2)CC1	3
CC1(C)COCc2sc(N3CCN(C(=O)[C@@H]4CCCC[C@H]4C(=O)NC4(C#N)CC4)CC3)nc21	2.4

Structure (SMILES)	logD
C[C@@H]1CN(C(=O)OC(C)(C)C)CCN1c1ncc(OCC2CCN(S(C)(=O)=O)CC2)cn1	3.5
CN(C(=O)Cc1ccc(-n2cnnn2)cc1)[C@H]1CCN(Cc2ccc(C(F)(F)F)cc2)C[C@H]1F	3.3
COc1ccc(N2CCN(C(=O)[C@@H]3CCCC[C@H]3C(=O)NCC#N)CC2)cc1	1.6
Cc1nc2nc(NC(=O)c3ccc(F)cc3)[nH]n2c(=O)c1Cc1ccccc1	2.2
C[C@H]1O[C@@H](n2cnc3c(N)nc(OC4CCCC4)nc32)[C@H](O)[C@H]1Cl	3.18
Cc1ncc(-c2ccnc(Nc3ccc(N4CCOCC4)cc3)n2)n1C(C)C	2.88
COc1cc(OC)c(S(=O)(=O)N2c3ccccc3CCC2C)cc1NC(=O)CSc1ccncc1 (stereo not drawn)	2.82
C[C@@H]1COCCN1c1cc(C2(S(C)(=O)=O)CC2)nc(-c2cccc3[nH]ccc23)n1	2.7
N#CCNC(=O)[C@@H]1CCCC[C@H]1C(=O)N1CCN(c2ccc(C#N)cc2)CC1	1.79
Cc1noc2cc(N3CCN(C(=O)[C@@H]4CCCC[C@H]4C(=O)NC4(C#N)CC4)[C@H](C)C3)ccc12	2.67
Nc1ccccc1NC(=O)c1ccc(-c2ncc(CN3CCC3)cc2F)cc1	1.69
Fc1ccc(CN2CCN(C3=Nn4c(nnc4C(F)(F)F)CC3)CC2)cc1	2.8
CCCSc1ncccc1C(=O)NC1[C@@H]2CC3C[C@H]1CC(O)(C3)C2 (stereo partly drawn)	2.27
N#CC1(NC(=O)[C@@H]2CCCC[C@H]2C(=O)N2CCN(c3nc4cnccc4s3)CC2)CC1	1.66
CC(C)(C#N)c1cnc(N2CCN(C(=O)[C@@H]3CCCC[C@H]3C(=O)NC3(C#N)CC3)CC2)s1	1.9
C[C@@H]1CN(c2noc(C3CC3)n2)CCN1c1ncc(OCc2ccncc2C#N)cn1	3.1
N#CC1(NC(=O)[C@@H]2CCCC[C@H]2C(=O)N2CCc3[nH]c4cc(F)ccc4c3C2)CC1	2.99
COc1ccc(N2CCN(C(=O)[C@@H]3CCCC[C@H]3C(=O)NC3(C#N)CC3)CC2)cc1	1.74
CS(=O)(=O)C1(c2cc(N3CCOCC3)nc(-c3cccc4[nH]ccc34)n2)CC1	2.2

— the SangsterLogP compilation
